Data: ChEMBL document CHEMBL1140081 (J Med Chem, 2008)
Blank lines part the entries; values can stand above or below the molecule they belong to.

Assays:
Liver microsomes [1] = experiment: Metabolic stability in human liver microsomes; type: ADME, Microsome
[2] = Metabolic stability in iv dosed dog urine assessed as drug recovery; type: ADME, organism-based, Canis lupus familiaris; conditions: read-out: Drug uptake
[3] = Metabolic stability in iv dosed Sprague-Dawley rat urine assessed as drug recovery; type: ADME, organism-based; conditions: read-out: Drug uptake
[4] = Metabolic stability in iv dosed Sprague-Dawley rat bile assessed as raltegravir-glucuronide recovery; type: ADME, organism-based; conditions: in vivo
[5] = Metabolic stability in iv dosed Sprague-Dawley rat bile assessed as drug recovery; type: ADME, organism-based; conditions: read-out: Drug uptake
[6] = Metabolic stability in iv dosed Sprague-Dawley rat urine assessed as raltegravir-glucuronide recovery; type: ADME, organism-based; conditions: in vivo
[7] = Metabolic stability in rhesus monkey liver microsomes; type: ADME, Macaca mulatta, Microsome
[8] = Metabolic stability in iv dosed dog urine assessed as raltegravir-glucuronide recovery; type: ADME, organism-based, Canis lupus familiaris; conditions: in vivo
Liver microsomes [9] = experiment: Metabolic stability in Sprague-Dawley rat liver microsomes; type: ADME, Microsome
[10] = Metabolic stability in dog liver microsomes; type: ADME, Canis lupus familiaris, Microsome
[11] = Metabolic stability in iv dosed dog urine assessed as drug recovery after 0 to 24 hrs; type: ADME, organism-based, Canis lupus familiaris; conditions: read-out: Drug uptake
[12] = Metabolic stability in Sprague-Dawley rat bile; type: ADME
[13] = Metabolic stability in po dosed dog bile; type: ADME, organism-based, Canis lupus familiaris; conditions: in vivo
[14] = Cmax in rhesus monkey at 10 mg/kg, po; type: ADME, organism-based, Macaca mulatta; design: dose 10 mg/kg, route oral; conditions: in vivo
[15] = Primary phase half life in rhesus monkey at 1 mg/kg, iv; type: ADME, organism-based, Macaca mulatta; design: dose 1 mg/kg, route intravenous; conditions: in vivo, read-out: alphat1/2 (converted)
[16] = test system: Human immunodeficiency virus 1; experiment: Antiviral activity against HIV1 with integrase N155S mutation by single cycle infectivity assay in presence of 10%FBS; type: functional
[17] = Cmax in dog at 10 mg/kg, po; type: ADME, organism-based, Canis lupus familiaris; design: dose 10 mg/kg, route oral; conditions: in vivo
[18] = Plasma clearance in dog at 5 mg/kg, iv; type: ADME, organism-based, Canis lupus familiaris; design: dose 5 mg/kg, route intravenous
Cytochrome P450 3A4 = Cytochrome P450 3A4 (Homo sapiens, UniProt P08684); experiment: Inhibition of CYP3A4; type: ADME
Chain of Cytochrome P450 3A4 (P08684 whole entry): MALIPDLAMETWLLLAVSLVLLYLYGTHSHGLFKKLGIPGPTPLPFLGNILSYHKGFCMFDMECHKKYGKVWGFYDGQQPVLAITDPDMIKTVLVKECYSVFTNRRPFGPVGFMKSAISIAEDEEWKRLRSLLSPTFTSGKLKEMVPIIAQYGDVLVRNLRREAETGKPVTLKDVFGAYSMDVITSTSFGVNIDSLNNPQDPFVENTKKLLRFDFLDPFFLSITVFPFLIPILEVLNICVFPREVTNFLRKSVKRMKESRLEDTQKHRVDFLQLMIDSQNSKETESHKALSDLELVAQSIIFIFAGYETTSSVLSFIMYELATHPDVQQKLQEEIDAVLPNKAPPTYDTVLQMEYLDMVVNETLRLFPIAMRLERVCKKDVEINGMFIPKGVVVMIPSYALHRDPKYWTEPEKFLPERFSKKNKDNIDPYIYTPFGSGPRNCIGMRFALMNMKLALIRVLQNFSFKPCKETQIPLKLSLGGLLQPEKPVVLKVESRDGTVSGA

Cytochrome P450 2C9 = Cytochrome P450 2C9 (Homo sapiens, UniProt P11712); experiment: Inhibition of CYP2C9; type: ADME
Chain of Cytochrome P450 2C9 (P11712 whole entry): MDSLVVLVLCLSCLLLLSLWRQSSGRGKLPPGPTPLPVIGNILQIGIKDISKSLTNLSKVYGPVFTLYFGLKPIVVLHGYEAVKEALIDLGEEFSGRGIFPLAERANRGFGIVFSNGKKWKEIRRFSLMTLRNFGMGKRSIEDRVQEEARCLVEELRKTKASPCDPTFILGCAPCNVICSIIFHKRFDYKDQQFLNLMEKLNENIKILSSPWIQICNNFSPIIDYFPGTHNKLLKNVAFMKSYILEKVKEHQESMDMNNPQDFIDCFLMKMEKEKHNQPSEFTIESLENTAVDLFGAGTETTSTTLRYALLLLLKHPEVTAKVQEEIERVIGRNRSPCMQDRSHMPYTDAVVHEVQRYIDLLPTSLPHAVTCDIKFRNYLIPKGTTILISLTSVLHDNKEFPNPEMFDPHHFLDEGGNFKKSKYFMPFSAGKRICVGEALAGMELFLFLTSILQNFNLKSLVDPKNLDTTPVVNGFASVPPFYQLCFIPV

[19] = Terminal half life in po dosed Sprague-Dawley rat; type: ADME, organism-based; conditions: in vivo
[20] = Cmax in Sprague-Dawley rat at 100 mg/kg, po using 1% methyl cellulose as vehicle; type: ADME, organism-based; design: dose 100 mg/kg, route oral; conditions: in vivo
[21] = test system: Human immunodeficiency virus 1; experiment: Antiviral activity against HIV1 with integrase T66I/M154 mutation by single cycle infectivity assay in presence of 10%FBS; type: functional
[22] = biological target: Voltage-gated inwardly rectifying potassium channel KCNH2 (Homo sapiens, UniProt Q12809); experiment: Binding affinity to human ERG
Chain of Voltage-gated inwardly rectifying potassium channel KCNH2 (Q12809 whole entry): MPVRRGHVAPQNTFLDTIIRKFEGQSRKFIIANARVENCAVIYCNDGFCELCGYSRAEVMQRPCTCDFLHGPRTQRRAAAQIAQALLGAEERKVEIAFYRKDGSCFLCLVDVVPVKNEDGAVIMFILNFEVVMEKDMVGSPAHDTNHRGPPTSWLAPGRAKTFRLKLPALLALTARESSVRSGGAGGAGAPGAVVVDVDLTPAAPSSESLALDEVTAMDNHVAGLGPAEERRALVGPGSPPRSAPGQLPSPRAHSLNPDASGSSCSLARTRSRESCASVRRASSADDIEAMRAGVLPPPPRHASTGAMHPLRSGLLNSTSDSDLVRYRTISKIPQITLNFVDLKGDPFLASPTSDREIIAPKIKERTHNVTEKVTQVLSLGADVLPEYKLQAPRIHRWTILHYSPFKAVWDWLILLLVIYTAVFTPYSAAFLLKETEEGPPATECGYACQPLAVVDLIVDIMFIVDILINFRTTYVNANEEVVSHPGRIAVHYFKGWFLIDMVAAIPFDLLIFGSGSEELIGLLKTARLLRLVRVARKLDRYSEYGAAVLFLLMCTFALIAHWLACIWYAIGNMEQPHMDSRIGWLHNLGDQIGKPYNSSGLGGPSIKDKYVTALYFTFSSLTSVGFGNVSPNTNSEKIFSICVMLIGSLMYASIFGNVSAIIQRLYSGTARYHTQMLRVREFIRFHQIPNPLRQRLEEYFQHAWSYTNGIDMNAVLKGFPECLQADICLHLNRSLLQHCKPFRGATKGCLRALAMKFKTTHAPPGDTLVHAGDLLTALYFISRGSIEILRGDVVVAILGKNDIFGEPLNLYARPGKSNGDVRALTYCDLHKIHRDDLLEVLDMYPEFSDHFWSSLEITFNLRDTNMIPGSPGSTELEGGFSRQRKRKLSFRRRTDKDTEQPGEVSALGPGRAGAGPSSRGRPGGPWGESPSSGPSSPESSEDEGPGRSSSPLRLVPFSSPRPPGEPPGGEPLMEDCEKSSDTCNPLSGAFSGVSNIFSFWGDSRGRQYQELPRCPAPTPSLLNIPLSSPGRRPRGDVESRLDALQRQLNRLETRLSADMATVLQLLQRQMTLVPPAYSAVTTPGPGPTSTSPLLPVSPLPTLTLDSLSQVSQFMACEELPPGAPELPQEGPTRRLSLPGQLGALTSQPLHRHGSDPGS

[23] = test system: Human immunodeficiency virus 1; experiment: Antiviral activity against HIV1 3B in human MT4 cells in presence of 10% heat-inactivated fetal bovine serum; conditions: Human immunodeficiency virus 1, 3B, read-out: CIC95
[24] = Cmax in Sprague-Dawley rat at 3 mg/kg, po; type: ADME, organism-based; design: dose 3 mg/kg, route oral; conditions: in vivo
[25] = Inhibition of HIV reverse transcriptase; design: species or system Human immunodeficiency virus
[26] = Terminal half life in Sprague-Dawley rat at 3 mg/kg, iv; type: ADME, organism-based; design: dose 3 mg/kg, route intravenous; conditions: in vivo, read-out: beta t1/2 (converted)
[27] = Terminal half life in dog at 5 mg/kg, iv; type: ADME, organism-based, Canis lupus familiaris; design: dose 5 mg/kg, route intravenous; conditions: in vivo, read-out: beta t1/2 (converted)
DNA polymerase beta = DNA polymerase beta (Homo sapiens, UniProt P06746); experiment: Inhibition of human DNA polymerase beta
[28] = Cmax in Sprague-Dawley rat at 100 mg/kg, po using PEG400 as vehicle; type: ADME, organism-based; design: dose 100 mg/kg, route oral; conditions: in vivo
[29] = AUC in Sprague-Dawley rat at 100 mg/kg, po using PEG400 as vehicle; type: ADME, organism-based; design: dose 100 mg/kg, route oral; conditions: plasma
[30] = AUC in Sprague-Dawley rat at 3 mg/kg, po; type: ADME, organism-based; design: dose 3 mg/kg, route oral; conditions: plasma
[31] = Oral bioavailability in po dosed rhesus monkey; type: ADME, organism-based, Macaca mulatta; conditions: in vivo
[32] = test system: Human immunodeficiency virus 1; experiment: Antiviral activity against HIV1 with integrase T125K/F121Y mutation by single cycle infectivity assay in presence of 10%FBS; type: functional
[33] = test system: Human immunodeficiency virus 1; experiment: Antiviral activity against HIV1 3B in human MT4 cells in presence of 50% normal human serum; type: functional; conditions: read-out: CIC95
[34] = AUC in rhesus monkey at 10 mg/kg, po; type: ADME, organism-based, Macaca mulatta; design: dose 10 mg/kg, route oral; conditions: plasma
[35] = Plasma clearance in Sprague-Dawley rat at 3 mg/kg, iv; type: ADME, organism-based; design: dose 3 mg/kg, route intravenous
[36] = Terminal half life in rhesus monkey at 1 mg/kg, iv; type: ADME, organism-based, Macaca mulatta; design: dose 1 mg/kg, route intravenous; conditions: in vivo, read-out: beta t1/2 (converted)
[37] = biological target: Human immunodeficiency virus type 1 integrase (Human immunodeficiency virus 1, UniProt Q7ZJM1); experiment: Inhibition of HIV1 recombinant integrase strand transfer activity
Chain of Human immunodeficiency virus type 1 integrase (Q7ZJM1 whole entry): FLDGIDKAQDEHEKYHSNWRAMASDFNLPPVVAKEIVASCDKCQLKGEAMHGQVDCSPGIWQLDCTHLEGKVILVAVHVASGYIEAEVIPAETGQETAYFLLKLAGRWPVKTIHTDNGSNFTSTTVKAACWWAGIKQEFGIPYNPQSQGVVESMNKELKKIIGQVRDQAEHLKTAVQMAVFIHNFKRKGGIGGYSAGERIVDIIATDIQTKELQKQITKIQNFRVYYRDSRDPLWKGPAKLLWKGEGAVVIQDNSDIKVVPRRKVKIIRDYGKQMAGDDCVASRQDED

[38] = Inhibition of HCV polymerase; design: species or system Hepacivirus hominis
[39] = Volume of distribution in rhesus monkey at 1 mg/kg, iv; conditions: in vivo
Cytochrome P450 2D6 = Cytochrome P450 2D6 (Homo sapiens, UniProt P10635); experiment: Inhibition of CYP2D6; type: ADME
Chain of Cytochrome P450 2D6 (P10635 whole entry): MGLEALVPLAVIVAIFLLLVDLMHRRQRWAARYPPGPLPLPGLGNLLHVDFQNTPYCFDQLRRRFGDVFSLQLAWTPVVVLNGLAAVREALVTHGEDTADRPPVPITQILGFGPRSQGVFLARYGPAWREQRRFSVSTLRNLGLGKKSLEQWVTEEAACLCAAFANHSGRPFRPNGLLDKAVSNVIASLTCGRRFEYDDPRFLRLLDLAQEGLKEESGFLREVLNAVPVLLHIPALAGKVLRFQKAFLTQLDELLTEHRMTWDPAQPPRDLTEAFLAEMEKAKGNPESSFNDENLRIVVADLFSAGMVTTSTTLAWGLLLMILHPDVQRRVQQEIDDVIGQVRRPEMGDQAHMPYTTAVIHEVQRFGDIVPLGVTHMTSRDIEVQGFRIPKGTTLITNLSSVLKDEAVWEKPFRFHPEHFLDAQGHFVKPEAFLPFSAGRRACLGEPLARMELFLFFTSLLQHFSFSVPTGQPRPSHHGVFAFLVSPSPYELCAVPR

[40] = Inhibition of HIV ribonuclease H; design: species or system Human immunodeficiency virus
[41] = test system: Human immunodeficiency virus 1; experiment: Antiviral activity against HIV1 with integrase T66I/L74M/V151I mutation by single cycle infectivity assay in presence of 10%FBS; type: functional
[42] = Primary phase half life in dog at 5 mg/kg, iv; type: ADME, organism-based, Canis lupus familiaris; design: dose 5 mg/kg, route intravenous; conditions: in vivo, read-out: alphat1/2 (converted)
[43] = Volume of distribution in Sprague-Dawley rat at 3 mg/kg, iv; type: ADME, organism-based; design: dose 3 mg/kg, route intravenous; conditions: in vivo
[44] = Terminal half life in dog at 10 mg/kg, po; type: ADME, organism-based, Canis lupus familiaris; design: dose 10 mg/kg, route oral; conditions: in vivo, read-out: beta t1/2 (converted)
[45] = Primary phase half life in Sprague-Dawley rat at 3 mg/kg, iv; type: ADME, organism-based; design: dose 3 mg/kg, route intravenous; conditions: in vivo, read-out: alphat1/2 (converted)
[46] = AUC in dog at 10 mg/kg, po; type: ADME, organism-based, Canis lupus familiaris; design: dose 10 mg/kg, route oral; conditions: plasma
[47] = Plasma clearance in rhesus monkey at 1 mg/kg, iv; type: ADME, organism-based, Macaca mulatta; design: dose 1 mg/kg, route intravenous
[48] = test system: Human immunodeficiency virus 1; experiment: Antiviral activity against HIV1 with integrase T66I/S153Y mutation by single cycle infectivity assay in presence of 10%FBS; type: functional
Cytochrome P450 1A2 = biological target: T1, Cytochrome P450 1A2 (Homo sapiens, UniProt P05177); experiment: Inhibition of CYP1A2; type: ADME
T1 sequence (P05177 whole entry): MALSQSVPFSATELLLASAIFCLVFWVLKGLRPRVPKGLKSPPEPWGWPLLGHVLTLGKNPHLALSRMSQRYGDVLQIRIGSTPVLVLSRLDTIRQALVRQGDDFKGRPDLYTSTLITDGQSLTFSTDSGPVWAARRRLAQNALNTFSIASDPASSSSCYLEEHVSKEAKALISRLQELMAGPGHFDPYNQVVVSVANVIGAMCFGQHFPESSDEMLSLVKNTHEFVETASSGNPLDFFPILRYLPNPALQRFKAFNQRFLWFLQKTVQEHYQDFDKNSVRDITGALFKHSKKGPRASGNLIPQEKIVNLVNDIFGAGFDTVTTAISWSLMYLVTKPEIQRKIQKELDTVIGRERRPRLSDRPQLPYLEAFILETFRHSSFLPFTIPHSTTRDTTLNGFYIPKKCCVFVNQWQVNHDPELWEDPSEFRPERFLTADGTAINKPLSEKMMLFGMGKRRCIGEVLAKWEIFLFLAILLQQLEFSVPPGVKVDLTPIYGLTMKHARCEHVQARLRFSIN

[49] = AUC in Sprague-Dawley rat at 100 mg/kg, po using 1% methyl cellulose as vehicle; type: ADME, organism-based; design: dose 100 mg/kg, route oral; conditions: in vivo
[50] = Volume of distribution in dog at 5 mg/kg, iv; type: ADME, organism-based, Canis lupus familiaris; design: dose 5 mg/kg, route intravenous; conditions: in vivo
[51] = Terminal half life in po dosed rhesus monkey; type: ADME, organism-based, Macaca mulatta; conditions: in vivo, read-out: beta t1/2 (converted)
[52] = Inhibition of human DNA polymerase alpha
[53] = Inhibition of human DNA polymerase gamma
[54] = Cmax in dog at 2 mg/kg, po; type: ADME, organism-based, Canis lupus familiaris; design: dose 2 mg/kg, route oral; conditions: in vivo
[55] = Oral bioavailability in po dosed Sprague-Dawley rat; type: ADME, organism-based; conditions: in vivo
[56] = Cmax in po dosed Sprague-Dawley rat; type: ADME, organism-based; design: route oral; conditions: in vivo
[57] = Oral bioavailability in po dosed dog; type: ADME, organism-based, Canis lupus familiaris; conditions: in vivo
[58] = Plasma concentration in dog at 2 mg/kg, po after 12 hrs; type: ADME, organism-based, Canis lupus familiaris; design: dose 2 mg/kg, route oral
[59] = AUC in dog at 2 mg/kg, po; type: ADME, organism-based, Canis lupus familiaris; design: dose 2 mg/kg, route oral; conditions: plasma
[60] = Plasma concentration in dog at 10 mg/kg, po after 12 hrs; type: ADME, organism-based, Canis lupus familiaris; design: dose 10 mg/kg, route oral

Stability (Liver microsomes [1]): 0.54 mL/h/kg | dose excreted [2]: 65% | dose excreted [3]: 10% | Drug uptake [4]: 90% | dose excreted [5]: 10% | Drug uptake [6]: 90% | Stability [7]: 2.16 mL/h/kg | Drug uptake [8]: 35% | Stability (Liver microsomes [9]): 2.04 mL/h/kg | Stability [10]: 0.12 mL/h/kg | dose excreted [11]: 30%
SMILES: Cc1nnc(C(=O)NC(C)(C)c2nc(C(=O)NCc3ccc([19F])cc3)c(O)c(=O)n2C)o1

Stability (Liver microsomes [1]): 0.48 mL/h/kg | Activity [12]: 5% | Activity [13]: 13% | Stability [7]: 2.76 mL/h/kg | Stability (Liver microsomes [9]): 1.2 mL/h/kg | Stability [10]: 0.18 mL/h/kg
SMILES: CN(C)C(=O)C(=O)NC(C)(C)c1nc(C(=O)NCc2ccc([19F])cc2)c(O)c(=O)n1C

SMILES: CN(C)C(=O)C(=O)NC(C)(C)c1nc(C(=O)NCc2ccc(F)cc2)c(O)c(=O)n1C
Cmax [14]: 4.5 µM | half-life [15]: 0.9 h | Activity [16]: 40% | Cmax [17]: 11 µM | clearance [18]: 660 mL/h/kg | IC50 (Cytochrome P450 3A4): > 50 µM | IC50 (Cytochrome P450 2C9): > 50 µM | half-life [19]: 0.9 h | Cmax [20]: 12 µM | Activity [21]: 5% | IC50 [22]: > 50 µM | IC95 [23]: 0.045 µM | Cmax [24]: 0.6 µM | IC50 [25]: > 50 µM | half-life [26]: 6 h | half-life [27]: 16 h | IC50 (DNA polymerase beta): > 50 µM | Cmax [28]: 31 µM | AUC [29]: 49 µM·h | AUC [30]: 0.7 µM·h | bioavailability [31]: 24% | Activity [32]: 19% | IC95 ([33]; Human immunodeficiency virus 1, 3B, MT4): 0.074 µM | AUC [34]: 5.2 µM·h | clearance [35]: 1200 mL/h/kg | half-life [36]: 3 h | IC50 [37]: 0.01 µM | IC50 [38]: > 50 µM | Vd [39]: 2.9 L/kg | IC50 (Cytochrome P450 2D6): > 50 µM | IC50 [40]: > 50 µM | Activity [41]: 35% | half-life [42]: 1.2 h | Vd [43]: 1.3 L/kg | half-life [44]: 4.9 h | half-life [45]: 0.4 h | AUC [46]: 23 µM·h | clearance [47]: 840 mL/h/kg | Activity [48]: 8% | IC50 (Cytochrome P450 1A2): > 50 µM | AUC [49]: 23 µM·h | Vd [50]: 1.1 L/kg | half-life [51]: 1.9 h | IC50 [52]: > 50 µM | IC50 [53]: > 50 µM

SMILES: Cc1nnc(C(=O)NC(C)(C)c2nc(C(=O)NCc3ccc(F)cc3)c([O-])c(=O)n2C)o1.[K+] [RALTEGRAVIR POTASSIUM]
Cmax [54]: 4.6 µM | Cmax [17]: 24 µM | half-life [19]: 7.5 h | bioavailability [55]: 45% | AUC [30]: 1.3 µM·h | IC95 [33]: 0.031 µM | Cmax [56]: 1.6 µM | bioavailability [57]: 69% | half-life [44]: 13 h | concentration at 12 h [58]: 0.16 µM | AUC [59]: 11 µM·h | concentration at 12 h [60]: 0.35 µM
